In patent US8778389B2, “Medicament for the treatment of fungal infections particularly aspergillosis” (Sigma-Tau Industrie Farmaceutiche Riunite S.p.A., priority 2004, dated 2014):
Entries after “also recorded” stand apart in the source; their conditions may differ. Where two headings read alike, the source gives them in different places.

What was measured:
A. fumigatus [1] = format: in vivo, mice
Protocol: Lethally irradiated C3H/HeJ mice were infused with T-cell-depleted BM cells of BALB/c mice (2×10^6) one week before intra-nasal infection with 2×10^7 Aspergillus conidia. The mice were treated with PTX3 or with the polyenes, at the doses and via the routes indicated, 5 days before (Pre-) or after (Post-) or concomitantly with infection (Con.), in each case repeating the administration for the next 5 days. Resistance to the infection was assessed as percentage survival. The fungal load in the lungs, brains and kidneys of the infected mice was quantified by serial plating on the Sabouraud dextrose medium of the lavages of the various organs and the results were expressed as colony forming units (CFU) (mean±SE) in samples taken from the organs indicated and performed at the time of death for the mice that died […] or otherwise at 6 days after infection. The groups consisted of 6 animals.
BM-transplanted mice, generated as described in detail in the legend to FIG. 1, were infected intranasally with 2×10^7 Aspergillus conidia and treated intraperitoneally with each single agent alone or in combination, before (Pre-) or after (Post-) infection. The doses were: 0.04 and 0.2 mg/kg PTX3 before or after infection, respectively; 1 mg/kg AmBisome and 2 mg/kg Fungizone.
Bone marrow (BM) cells from BALB/c donor mice were prepared by differential agglutination with soy agglutinin.
The A. fumigatus strain was supplied by a fatal case of pulmonary aspergillosis at the Institute for Infectious Diseases of the University of Perugia (13). For infection, the mice were lightly anaesthetised by means of the inhalation of ethyl ether prior to the instillation of a suspension of 2×10^7 conidia/20 μL saline solution, which was delivered slowly through the nostrils using a micropipette with a sterile disposable tip. This procedure was repeated for 3 consecutive days. For reinfection, the mice surviving the primary intranasal (i.n.) infection were inoculated with 5×10^5 of Aspergillus conidia i.v. The fungal load in the lungs, brain and kidneys of the infected mice was quantified by serial plating on Sabouraud dextrose medium and the results (mean±SE) were expressed as colony forming units (CFU) in samples taken from the organs indicated. For selected experiments, the fungal growth was also evaluated by chitin analysis (10). For the histological analysis, the lung was removed and immediately fixed in formalin. Sections (3 to 4 μm) of tissues embedded in paraffin were stained with the periodic acid Schiff base procedure (13, 20).
PTX3 (SIGMA-Tau, Pomezia, Rome, Italy) was purified by immunoaffinity chromatography from the culture supernatants of CHO cells CHO transfected with PTX3 and monitored for the absence of endotoxins (20). PTX3, amphotericin B deoxycholate (D-AmB, Fungizone, Bristol-Myers Squibb, Sermoneta, Italy) and liposomal amphotericin B (L-AmB, AmBisome, GILEAD, Milan, Italy) were diluted to the desired concentrations in sterile saline solution (PTX3) or in a 5% glucose-water solution.

Aspergillus conidia [2] = assay: Resistance to Aspergillus reinfection (i.v.) in cured BM-transplanted mice; format: in vivo; details: PTX3 concomitantly with primary infection; i.v. reinfection two weeks later; CFU 3 days after reinfection
Description: FIG. 2 illustrates the effect of the administration of PTX3 on resistance to Aspergillus reinfection. BM-transplanted mice, generated as described in detail in the legend to FIG. 1, were infected intranasally with 2×10^7 Aspergillus conidia one week after the BM transplant and treated concomitantly with PTX3 at the doses and via the administration routes indicated, starting on the day of infection and continuing for the next 5 days. Two weeks after the infection the surviving mice were reinfected intravenously with 5×10^5 Aspergillus conidia. The fungal growth (CFU) in the kidneys was evaluated 3 days after reinfection. * Indicates P<0.05 (treated vs. untreated mice).
(§1) The A. fumigatus strain was supplied by a fatal case of pulmonary aspergillosis at the Institute for Infectious Diseases of the University of Perugia (13). […] For reinfection, the mice surviving the primary intranasal (i.n.) infection were inoculated with 5×10^5 of Aspergillus conidia i.v. The fungal load in the lungs, brain and kidneys of the infected mice was quantified by serial plating on Sabouraud dextrose medium and the results (mean±SE) were expressed as colony forming units (CFU) in samples taken from the organs indicated. For selected experiments, the fungal growth was also evaluated by chitin analysis (10). […]

A. fumigatus [3] = assay: Lung histology (periodic acid Schiff) in mice with invasive aspergillosis; format: in vivo; details: 1 mg/kg i.p. from day of infection and for another 5 days; 6 days after infection
Protocol: Periodic Schiff base sections were prepared from the lungs of the BM-transplanted mice infected with Aspergillus conidia either untreated (A) or treated (B) with 1 mg/kg PTX3 intraperitoneally from the day of infection and continuing for another 5 days. Numerous Aspergillus hyphae (arrows) infiltrate the pulmonary parenchyma, with extensive parenchymal destruction and strong signs of damage to the bronchial wall, and necrosis and poor cell recruitment are observed in the lungs of the untreated mice ([…]). […] Enlargement, ×100 in panels A and B; ×400 in insets.
as §1

[4] = test system: CD4+, CD8+, Gr-1+, F4-80+ cells; assay: Cell recovery by FACS analysis of lung and spleen cells and blood leukocyte count in mice with invasive aspergillosis; format: in vivo
Protocol: BM-transplanted mice, generated as described in detail in the legend to FIG. 1, were infected intranasally with 2×10^7 Aspergillus conidia and treated (+) or untreated (−) with 1 mg/kg PTX3 intraperitoneally from the day of infection and continuing for another 5 days. The numbers refer to the percentage of positive cells, reported by the FACS analysis in the lungs (A) and in the spleen (B), 3 or 6 days after infection.
The phenotype of the various cell types was assessed using murine antibodies against the antigens indicated with rat anti-mouse antibodies conjugated with FITC from PharMingen (San Diego, Calif.). Prior to immunochemical identification, the FcR was saturated by incubation of the cells with 5% normal serum. Histotype antibodies were used as controls. The analysis was done by means of FACScan (Becton Dickinson, Mountain View, Calif.). The data obtained were evaluated as percentage of positive cells. The histograms are representative of one of four independent experiments.

[5] = test system: IL-12 p70, IL-10, TNF-α, IFN-γ, IL-4; assay: Cytokine levels (ELISA) and cytokine-producing CD4+ T spleen cells (ELISPOT) in mice with invasive aspergillosis; format: in vivo
Protocol: (§2) BM-transplanted mice, generated as described in detail in the legend to FIG. 1, were infected intranasally with 2×10^7 Aspergillus conidia and treated with 1 mg/kg PTX3 intraperitoneally both before infection (oblique line bars) and from the day of infection and continuing for another 3 days (dotted bars). At 3 days after infection, IL-12 p70 and IL-10 levels were determined by specific ELISA analyses in bronchoalveolar lavage fluids (A), the number of CD4^+ T spleen cells producing cytokines were numbered by ELISPOT analysis (B) and the gene expression of cytokine on CD4^+ spleen cells was determined by real-time PCR. Bars indicate standard errors. *P<0.05, infected vs. non-infected mice; **P<0.05, PTX3-treated vs untreated mice. Non-infected mice (white bars); infected mice (black bars).
BM-transplanted mice, generated as described in detail in the legend to FIG. 1, were infected intranasally with 2×10^7 Aspergillus conidia and treated intraperitoneally with each individual agent alone or in combination after infection. The dosages were as described in detail in the legend to FIG. 6. […] levels (pg/ml) were determined in bronchoaleveolar lavage fluids 3 days after infection (A) and IFN-γ and IL-4 levels (pg/ml) in the culture supernatants of the antigen-activated spleen cells (B) performed at the time of death for those mice that died before, or otherwise at 6 days after infection. Bars indicate standard errors. (−, untreated mice). *P<0.05 treated vs. untreated mice; **P<0.05, combination treatment with PTX3+Fungizone (D-AmB) vs D-AmB alone; ***P<0.05, combination treatment with PTX3+AmBisome (L-AmB) vs each single treatment alone.
The levels of cytokines in the bronchoalveolar lavage fluids and in the supernatants of the cultures of spleen cells stimulated with Aspergillus (9, 10), thermally […], were determined using the ELISA Kit (R&D Systems, Inc. Space Import-Export srl, Milan Italy). The detection limits of the analyses (pg/ml) were <16 for IL-12 p70, <32 for TNF-α, <10 for IFN-γ and <3 for IL-4 and IL-10. For the numbering of the CD4^+ T cells producing cytokines, ELISPOT analysis was used on purified CD4^+ T spleen cells (9, 10). The results were expressed as the mean number of cells producing cytokines (±SE) per 10^5 cells, calculated using replicates of the serial cell dilutions.

IFN-γ and IL-4 mRNA = assay: Cytokine gene expression on CD4+ spleen cells by real-time RT-PCR; format: in vivo, mice; details: prophylactic and therapeutic treatment
Protocol: as §2
Total RNA (5 μg, extracted from CD4^+ T spleen cells using the RNeasy Mini Kit (QIAGEN S.p.A., Milan, Italy)) was retrotranscribed with Sensiscript reverse transcriptase (QIAGEN) according to the manufacturer's indications. The primers for PCR were obtained from Applied Biosystems (Foster City, Calif.). […] The data normalised with RNA 18S were expressed as relative mRNA of the cytokines examined (ΔΔCt) and compared with those of naive mice (10).

[6] = PTX3 levels in bronchoalveolar lavage fluids after i.n. administration; format: in vivo, mice; details: 0.5 mg/kg i.n.
Protocol: To assess whether PTX3 may have a beneficial effect in otherwise susceptible mice, we used BM-transplanted mice whose substantial susceptibility to IA is well documented (15). The mice were subjected to treatments with different doses of PTX3 administered intranasally or intraperitoneally, before, concomitantly with or after infection. The doses were selected on the basis of preliminary experiments showing that PTX3 levels (at the dose of 0.5 mg/kg/i.n.) were high in bronchoalveolar lavage fluids for at least 24 h (from 70 to 25 ng/ml from 2 to 24 h) and that they were higher than those observed in mice with IA one day after infection (from 2 to 15 ng/ml) (20 and unpublished data). The survival parameters and fungal load in the lung and brain were then recorded and analysed in comparison with those obtained in mice treated with different doses of AmBisome or Fungizone. […] A dose-dependent effect was detected for this administration period, in that the protective efficacy of PTX3 was lost at the dose of 0.04 mg/kg. […] No difference was observed between the two administration routes. […] These characteristics were not observed in the mice treated with PTX3, the lungs of which were characterised by healing infiltrates of poly- and mononuclear inflammatory cells with no evidence of fungal growth or destruction of the bronchial wall (FIG. 3B).

A. fumigatus [7] = assay: In-vitro direct killing activity on the fungus; format: cell-based; details: data not shown
Aspergillus conidia [8] = assay: Conidia-killing activity of effector phagocytes from treated mice; format: in vivo; details: treated vs untreated mice; data not shown
[9] = 1 mg/kg i.p., 3 days after infection, vs untreated control

Substance: PTX3: long pentraxin PTX3 purified by immunoaffinity chromatography from culture supernatants of CHO cells transfected with PTX3
- survival (A. fumigatus [1]; PTX3 administered after infection): increased the survival of the mice only at the higher dose
- survival (A. fumigatus [1]; PTX3 administered prophylactically, any of the doses assayed): ≥ 60 days
- fungal load in the lung (A. fumigatus [1]; after infection, both doses): significantly reduced
- fungal load in the brain (A. fumigatus [1]; after infection, higher dose): significantly reduced
- protective efficacy (A. fumigatus [1]; concomitantly with infection, 0.04 mg/kg): lost
- fungal load in the lungs and brain (A. fumigatus [1]; prophylactic, particularly at highest dose (1 mg/kg), vs untreated): significantly reduced
- fungal growth in the kidneys of reinfected mice (Aspergillus conidia [2]): reduced
- lung pathology (A. fumigatus [3]): no evidence of parenchymal destruction or fungal growth; also recorded: improved
- numbers of CD4+ cells, CD8+ cells and Gr-1+ neutrophils in the lungs ([4]; 1 mg/kg i.p., FACS): significantly increased
- recovery of neutrophils and, partly, of CD4+ T cells in the spleens ([4]; 1 mg/kg i.p., FACS): observed
- absolute number of circulating neutrophils ([4]; blood leukocytes, data not shown): increased significantly
- number of F4-80+ cells of the lungs or spleens ([4]; with or without PTX3 treatment): No difference
- increase of IL-12 production [5, 9]: approximately 4 fold
- production of IL-10 [5, 9]: halved
- frequency of CD4+ Th1 cells in the spleen ([5]; ELISPOT): increased
- frequency of cells producing IL-4 in the spleen ([5]; ELISPOT): reduced
- production of IL-4 by spleen cells ([5]; antigen-stimulated spleen cell supernatants, suboptimal doses): greatly reduced
- production of TNF-α ([5]; lungs of infected mice treated with PTX3): not increased
- expression of IFN-γ mRNA (IFN-γ and IL-4 mRNA): significantly increased
- expression of IL-4 mRNA (IFN-γ and IL-4 mRNA): reduced
- time PTX3 levels were high in bronchoalveolar lavage fluids [6]: at least 24 h
- direct killing activity on the fungus (A. fumigatus [7]): ruled out any direct killing activity
- conidia-killing activity of the effector phagocytes (Aspergillus conidia [8]): higher
